The numbers were not newly measured in patent publication US20130190368A1, “NOVEL POLYMORPHS OF FEBUXOSTAT” (HETERO RESEARCH FOUNDATION, priority 2010, published 2013), which cites them from elsewhere.

For the series the following is noted: compared to allopurinol.

Take `Cc1nc(-c2ccc(OCC(C)C)c(C#N)c2)sc1C(=O)O` [febuxostat, 2-[3-cyano-4-(2-methylpropoxy)phenyl]-4-methyl-5-thiazolecarboxylic acid]: the “amount of initial gout flares or surface area of gout tophi” value is given as “no difference” and the “individuals with decreased levels of uric acid” value is on record as “more individuals treated with febuxostat had decreased levels of uric acid”.
